Measured values published in publication PMC5548745, “Agonist-induced dimer dissociation as a macromolecular step in G protein-coupled receptor signaling” (Nature Communications, 2017).

B1: FZD6 TM5 synthetic peptide (peptide)
peptide: KKLDASRYFVLLPLCLCVFVGLSLLLAGIISKKK
notes: flanking lysines added to the transmembrane stretch; transmembrane helix 5 of human FZD6, Uniprot ID O60353; source: synthetic peptide (Pepscan Therapeutics or Fmoc synthesis, HPLC purified)
B2: Frizzled 6 (FZD6), wild type, expressed as V5-FZD6-mCherry and as FZD6-GFP (receptor, human, UniProt O60353 19-706, looked up)
chain: HSLFTCEPITVPRCMKMAYNMTFFPNLMGHYDQSIAAVEMEHFLPLANLECSPNIETFLCKAFVPTCIEQIHVVPPCRKLCEKVYSDCKKLIDTFGIRWPEELECDRLQYCDETVPVTFDPHTEFLGPQKKTEQVQRDIGFWCPRHLKTSGGQGYKFLGIDQCAPPCPNMYFKSDELEFAKSFIGTVSIFCLCATLFTFLTFLIDVRRFRYPERPIIYYSVCYSIVSLMYFIGFLLGDSTACNKADEKLELGDTVVLGSQNKACTVLFMLLYFFTMAGTVWWVILTITWFLAAGRKWSCEAIEQKAVWFHAVAWGTPGFLTVMLLAMNKVEGDNISGVCFVGLYDLDASRYFVLLPLCLCVFVGLSLLLAGIISLNHVRQVIQHDGRNQEKLKKFMIRIGVFSGLYLVPLVTLLGCYVYEQVNRITWEITWVSDHCRQYHIPCPYQAKAKARPELALFMIKYLMTLIVGISAVFWVGSKKTCTEWAGFFKRNRKRDPISESRRVLQESCEFFLKHNSKVKHKKKHYKPSSHKLKVISKSMGTSTGATANHGTSAVAITSHDYLGQETLTEIQTSPETSMREVKADGASTPRLREQDCGEPASPAASISRLSGEQVDGKGQAGSVSESARSEGRISPKSDITDTGLAQSNNLQVPSSSEPSSLKGSTSLLVHPVSGVRKEQGGGCHSDT
notes: Frizzled 6 (FZD6), human, Uniprot ID O60353; Two differently tagged copies of the same receptor are tested against each other, so they are written as one molecule; The FCS experiment used FZD6-GFP alone; also called FZD6 wt; source: HEK293, transiently transfected (Lipofectamine 2000), in living cells; not shown: V5 (on the crosslinked copy), N-terminal, kept; mCherry (on the crosslinked copy), …

Tests used:
FZD6–FZD6 dimer = assay: dcFRAP of V5-FZD6-mCherry/FZD6-GFP (FZD6 dimerization); type: cell-based, human; conditions: HEK293; co-transfection of V5-FZD6-mCherry, FZD6-GFP and minigene; N=43 TM1, N=66 TM5
Method: For dual color FRAP experiments, cells grown in four compartment 35 mm glass bottom dishes were washed three times with BE buffer[19] (150 mM NaCl, 2.5 mM KCl, 10 mM HEPES, 12 mM glucose, 0.5 mM CaCl2, and 0.5 mM MgCl2). Then, the cells were incubated at RT for 30 min with biotin-conjugated goat polyclonal anti-V5 antibody (Bethyl) diluted 1:100 in BE buffer supplemented with 2.5% bovine serum albumin. For antibody-mediated cross-linking, avidin was added and incubated for 15 min and washed two times with BE buffer before the experiments were performed. In Fig. 4, dcFRAP experiments are presented that employ chemical surface crosslinking to visualize assembly of FZD6 with DVL or heterotrimeric G proteins according to previously published protocols. Live cell imaging experiments were carried out using a Zeiss 710 laser scanning microscope. Images were acquired using a 40×, 1.2 NA C-Apochromat objective and the 488 nm and the 561 nm laser lines were used to excite GFP and mCherry fluorophores, respectively. Photobleaching was performed by 100% laser illumination of a 1.80 × 1.80 µm area placed over the cell plasma membrane. Fluorescence was measured pre- and post-bleach using low-intensity illumination for a total time period of 100 s. Average pixel intensity was measured using the ZEN2013 software, corrected for background fluctuations and bleaching artifacts and normalized to pre-bleached intensity. The recovered mobile fraction (F m) was calculated as follows: F m = (I P–I 0)/(I I–I 0), where I I is the initial intensity measured prior to bleaching, I 0 is the immediate fluorescence intensity post-bleaching and I P is intensity value post-bleaching. The mobile fraction was defined by the average of the fluorescence recovery assessed between time 85–101 s (including pre-bleach measurements). We excluded experiments in which the extracellularly tagged receptors were not sufficiently immobilized after the crosslinking procedure (cutoff at 40% crosslinking-induced reduction in mobile fraction). Kinetic determination of mobile fractions of crosslinked V5-FZD6-mCherry and FZD6-GFP with WNT stimulation over time were performed in one cell culture well. Measurements for each time point were performed on separate cells.
Statistical and graphical analysis was performed using Graph Pad Prism 5 software. Data were analyzed by two-tailed t-test or one-way ANOVA with Fisher’s least significant difference post hoc analysis. Curve fitting of FRAP data was done with a two-phase association nonlinear function using the least square fit. Data for receptor titration in the presence of C59 and output to P-ERK1/2 in Fig. 6h was fit to a linear regression model. All experiments were repeated at least three times in independent experiments (not representing technical replicates). For single cell analysis (dcFRAP), the number of the individual ROIs obtained from several cells in at least three independent experiments is provided in the figure legends. Data from individual ROIs are summarized for data presentation providing the sum of independent observations. Significance levels are given as: *P < 0.05; **P < 0.01; ***P < 0.001. Data in FRAP curves and bar graphs (FRAP) are presented as mean ± s.e.m.

[1] = test system: ERK1/2 phosphorylation in MLE-12 cells; assay: basal P-ERK1/2 immunoblot, MLE-12 cells expressing minigenes; type: cell-based, mouse; conditions: transient transfection of minigene
Method: (§1) MLE-12 or HEK293 cells (ATCC) were plated in a 24- or 48-well plate at a density of 100,000 or 50,000 cells/well, respectively. After 24 h, cells were transfected using Lipofectamine 2000 according to the manufacturer’s instructions. Cells were stimulated (24 h post-transfection) with 300 ng ml^−1 recombinant carrier-free WNT-5A (CF WNT-5A; R&D Systems). Stimulation was stopped by the addition of lysis buffer (1% NP-40, 150 mM NaCl, 50 mM Tris/HCl pH 8). Lysates were sonicated and analyzed by 7.5 or 10% Mini-PROTEAN TGX precast polyacrylamide gels (Bio-Rad) and transferred to PVDF membranes using the Trans-Blot Turbo system (Bio-Rad). […] Proteins were detected with horseradish peroxidase-conjugated secondary antibodies (goat anti-rabbit and goat anti-mouse (Pierce)) and Clarity Western ECL Blotting Substrate (Bio-Rad). […]
(§2) Quantification of P-ERK1/2 is normalized to β-actin as loading control. […] P-ERK1/2, HA-TM1/5 and β-actin as loading control were assessed by PAGE/immunoblotting. […]

[2] = test system: lysophosphatidic acid receptor (endogenous); assay: lysophosphatidic acid-induced P-ERK1/2 in HEK293 cells with minigenes; type: cell-based; conditions: lysophosphatidic acid 10 µM, 10 min
Method: as §1, with “Cells were stimulated (24 h post-transfection) with 300 ng ml^−1 recombinant carrier-free WNT-5A (CF WNT-5A; R&D Systems).” left out
as §2

[3] = test system: HEK293 and MLE-12 cell membrane; assay: immunocytochemistry of HA-tagged minigenes without permeabilization; type: cell-based; conditions: 4% paraformaldehyde, no permeabilization
Text: Supplementary Figure 7: Control experiments for assaying receptor dimerization by dcFRAP and expression of minigenes. (a) HEK293 and MLE-12 cells were transfected with HA-tagged TM1/5 minigenes, fixed in 4% paraformaldehyde and stained with an anti-HA antibody/Cy2-conjugated secondary antibody in the absence of cell permeabilization by detergents. […]
confirms both the membrane expression of the minigenes as well as the correct orientation of the peptides with the N-terminal signal sequence/HA tag on the extracellular side accessible to the primary antibody. Images were taken with a 40x objective using the 488 nm laser line on a Zeiss LSM 710 confocal microscope. Size bars – 10 µm. (b) Bar graph compares the immobile fraction in dcFRAP experiments of FZD6-GFP after CL of V5-FZD6-mCherry in cells expressing minigenes corresponding to either TM1 (control) or TM5 (competing at the dimer interface). P= […]
Error bars give s.e.m.; * P<0.05 (two-tailed t-test). (c) Transient transfection of TM5, […]
abrogation of dimer formation, in the presence of TM5, reduces receptor-mediated signaling. (d) Bar graph summarizes four independent immunoblotting experiments. P-ERK1/2 in TM1 expressing MLE-12 cells were normalized to 100%. […]
as §2

[4] = test system: protease-activated receptor (endogenous); assay: thrombin-induced P-ERK1/2 in HEK293 cells with minigenes; type: cell-based; conditions: thrombin 10 U/ml, 10 min
[5] = biological target: B2; assay: cell-based or functional assay
[6] = biological target: T1, FZD6 TM4 synthetic peptide (human); assay: SEC; Superdex 30 analytical column, triple distilled water + 0.01% DDM, room temperature; 500 µM of each peptide, incubated together for 2 h; conditions: both partners purified
T1 construct: flanking lysines added to the transmembrane stretch; transmembrane helix 4 of human FZD6, Uniprot ID O60353; Whole peptide as printed: [residues removed]; source: synthetic peptide (Pepscan Therapeutics or Fmoc synthesis, HPLC purified)
T1 peptide: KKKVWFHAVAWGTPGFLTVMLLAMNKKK

[7] = biological target: the molecule itself; assay: fluorescence cross-correlation spectroscopy (FCCS); living HEK293 cells co-expressing FZD6-GFP and V5-FZD6-mCherry at low levels (10-1000 receptors per µm^2), no crosslinking; dynamic measurements before and after WNT-5A (300 ng ml^-1)

Molecule	effect on basal P-ERK1/2 [1]	effect on lysophosphatidic acid-induced P-ERK1/2 [2]	membrane expression and orientation (anti-HA staining) [3]	effect on thrombin-induced P-ERK1/2 [4]	other results
KKLDASRYFVLLPLCLCVFVGLSLLLAGIISKKK [TM5 minigene]	reduced basal P-ERK1/2	did not observe any difference in P-ERK1/2 induction	Positive anti-HA staining in the cell membrane	did not observe any difference in P-ERK1/2 induction	effect of minigene on FZD6 dimer formation (FZD6–FZD6 dimer): perturbed dimer formation
KKKSFIGTVSIFCLCATLFTFLTFLIKKK [TM1 minigene]	did not affect basal ERK1/2 levels	did not observe any difference in P-ERK1/2 induction	Positive anti-HA staining in the cell membrane	did not observe any difference in P-ERK1/2 induction	–
KKLDASRYFVLLPLCLCVFVGLSLLLAGIISKKK [HA-tagged TM5 minigene of FZD6]	–	–	–	–	basal P-ERK1/2 level (immunoblot) in MLE-12 cells expressing the TM5 minigene, which interferes with the FZD6-FZD6 dimer; the TM1 minigene had no effect [5]: 56.7%
B1	–	–	–	–	binding result [6]: binds
B2	–	–	–	–	stoichiometry N [7]: 2
